Experimental data from patent US20250228851A1, “ALLOSTERIC INHIBITOR COMPOUNDS FOR OVERCOMING CANCER RESISTANCE” (priority 2021, published 2025).
Entries after “also recorded” stand apart in the source; their conditions may differ.

Legend:
HP (Ph− ALL PD-LTC) = experiment: XTT cell viability, PD-LTC HP; details: increasing concentration up to 10 μM
Method: (§6) Each tested compound was dissolved in a suitable vehicle and cells were exposed to successive solutions containing an increasing concentration of each test compound, as well as a control sample containing no test compound. A range of 5 (or 10) concentrations were tested in triplicates starting from 1 μM. The potency of each test compound was assessed by cell viability using an XTT assay [53, 54]. The ratio of cell viability (CV %) was determined by calculating the average of each triplicate, normalizing to the average in case to the average of the control sample.
(§7) Standard deviation (STD) was calculated for each triplicate and the curve logarithmic equation was calculated for each curve.
(§8) Each compound was assayed against a panel of Patient-Derived Long-Term cultures (PD-LTCs) including: • 8. […] PH: primary Patient-Derived Long-Term Cultures (PD-LTCs) from Ph^+ ALL patients Ph+ ALL (p185-BCR-ABL) that are fully responsive to TKIs ˜30% of adult ALL patients harbor the Ph chromosome, that represent a high-risk group of ALL. • 10. […] HP: PD-LTCs derived from Ph− ALL patient (not harboring the Ph chromosome). HP was used as negative control. • 12. VM: derived from a Ph+ ALL patient harboring p210-BCR-ABL. • 13.
(§9) The dose-response curves for single agent treatments were generated in Prism 9 (GraphPad). Curve fitting was performed by nonlinear regression using the log(inhibitor) vs. normalized response—Variable slope model.

[1] = system: Ba/F3 cells expressing p185-BCR-ABL; experiment: XTT cell viability / proliferation, Ba/F3 expressing p185-BCR-ABL; assay type: cell-based, murine; details: p185-BCR-ABL-Ba/F3, increasing concentration up to 10 μM
Method: (§1) • 1. Ba/F3 cells were obtained from the German Collection of Microorganisms and Cell Cultures (DSMZ, Braunschweig, Germany) and maintained in RPMI 1640 medium supplemented with 10% fetal calf serum (Invitrogen) containing 10 ng/ml of interleukin-3 (Cell Concepts, Umkirch, Germany). Ecotropic Phoenix cells and Rat-1 cells were cultured in Dulbecco's modified Eagle's medium supplemented with 10% fetal calf serum. GNF-2 (Sigma-Adrich, Steinheim, Germany) was dissolved in dimethyl sulfoxide and added at a final concentration of […]. Cell growth was assessed by dye exclusion using Trypan blue. Proliferation was assessed using the XTT proliferation kit (Roche, Mannheim, Germany), according to the manufacturer's instructions. • 2. Ba/F3: IL-3 dependent lymphatic murine pro B cell line. Ba/F3 cells expressing either p185-BCR-ABL1 (p185-BCR-ABL-Ba/F3) or p210-BCR-ABL (p210-BCR-ABL-Ba/F3). p185-BCR-ABL1 (activated kinases substitute for the IL-3 signaling and therefore render the cells IL3 independent. Ba/F3 cells expressing either p185-BCR-ABL (p185-Ba/F3) or p210-BCR-ABL (p210-Ba/F3). Ba/F3 cells obtained from the German Collection of Microorganisms and Cell Cultures (DSMZ, Braunschweig, Germany). • 3. Mutant transduced Ba/F3 cells (T315I-p185-BCR-ABL1 or T315I-p210-BCR-ABL1): Ba/F3 cells expressing either the mutated forms T315I-p185-BCR-ABL1 or T315I-p210-BCR-ABL1. • 4. WT-Sup-B15: A Ph+ ALL cell line harboring the p185-BCR-ABL. Sup-B15: established from the bone marrow of a child with acute lymphoblastic leukemia (B cell precursor ALL) in second relapse in 1984; described in the literature to carry the ALL-variant (m-BCR) of the BCR-ABL1 fusion gene (e1-a2) correct, because it results in the p185-BCR-ABL version. • 5. […] V617FJAK2 HEL: (Human erythroleukemia) is a growth factor independent erythroleukemic cell line established from the bone marrow of a patient with relapsed Hodgkin disease after autologous bone marrow transplantation (Martin P & Papayannopoulou T: Science 1982; 216:1233-1235). HEL cells display a block in differentiation at the level of common erythroid-megakaryocytic progenitor and have been commonly used as a model to study erythroid and megakaryocytic differentiation. • 7. Jurkat: an immortalized human T lymphocyte first derived from the peripheral blood of a child suffering from T cell leukemia. Jurkat cells are used to study acute T cell leukemia, T cell signaling, and the expression of various chemokine receptors susceptible to viral entry, particularly HIV.
(§2) FIGS. 1A and 1B: Effects of Compound 16 on Ba/F3 cells expressing either p185-BCR-ABL or T315I-p185-BCR-ABL. Cells were exposed to increasing concentration of Compound 16 [empty vehicle (0.0 μM+IL3), 2.5, 5.0 and 10.0 μM]. […] Cell viability (CV) was assessed using the XTT method as described in the experimental part. The means±SD of triplicates from one representative experiment out of three performed are given.
(§3) FIGS. 7A-C: Effects of Compound 16 on of Ba/F3 cells expressing WT-p185-BCR-ABL (FIG. 7A) and the mutant gatekeeper T315I-p185-BCR-ABL (FIG. 7B) by Compound 16. Cells were exposed to increasing concentrations of Compound 16.

[2] = system: Ba/F3 cells expressing T315I-p185-BCR-ABL; experiment: XTT cell viability / proliferation, Ba/F3 expressing T315I-p185-BCR-ABL; assay type: cell-based, murine; details: for antiproliferative response (in words): T315I-p185-BCR-ABL-Ba/F3, increasing concentration up to 10 μM
Method: as §1, §2, §3

[3] = system: PINCO transfected Ba/F3 cells; experiment: XTT cell viability, Ba/F3 transduced with empty vector (PINCO); assay type: cell-based, murine; details: increasing concentration up to 10 μM
Method: (§4) • 1. Ba/F3 cells were obtained from the German Collection of Microorganisms and Cell Cultures (DSMZ, Braunschweig, Germany) and maintained in RPMI 1640 medium supplemented with 10% fetal calf serum (Invitrogen) containing 10 ng/ml of interleukin-3 (Cell Concepts, Umkirch, Germany). Ecotropic Phoenix cells and Rat-1 cells were cultured in Dulbecco's modified Eagle's medium supplemented with 10% fetal calf serum. GNF-2 (Sigma-Adrich, Steinheim, Germany) was dissolved in dimethyl sulfoxide and added at a final concentration of […]. Cell growth was assessed by dye exclusion using Trypan blue. Proliferation was assessed using the XTT proliferation kit (Roche, Mannheim, Germany), according to the manufacturer's instructions. • 2. Ba/F3: IL-3 dependent lymphatic murine pro B cell line. Ba/F3 cells expressing either p185-BCR-ABL1 (p185-BCR-ABL-Ba/F3) or p210-BCR-ABL (p210-BCR-ABL-Ba/F3). p185-BCR-ABL1 (activated kinases substitute for the IL-3 signaling and therefore render the cells IL3 independent. Ba/F3 cells expressing either p185-BCR-ABL (p185-Ba/F3) or p210-BCR-ABL (p210-Ba/F3). Ba/F3 cells obtained from the German Collection of Microorganisms and Cell Cultures (DSMZ, Braunschweig, Germany). • 3. Mutant transduced Ba/F3 cells (T315I-p185-BCR-ABL1 or T315I-p210-BCR-ABL1): Ba/F3 cells expressing either the mutated forms T315I-p185-BCR-ABL1 or T315I-p210-BCR-ABL1. • 4. WT-Sup-B15: A Ph+ ALL cell line harboring the p185-BCR-ABL. Sup-B15: established from the bone marrow of a child with acute lymphoblastic leukemia (B cell precursor ALL) in second relapse in 1984; described in the literature to carry the ALL-variant (m-BCR) of the BCR-ABL1 fusion gene (e1-a2) correct, because it results in the p185-BCR-ABL version. • 5. […]
FIG. 11: Antiproliferative effect of Compound 16 on PINCO transfected Ba/F3 cells. […] Proliferation status was determined by the metabolic activity of cells given by the reduction rate of XTT to formazan. […]

Jurkat = experiment: XTT cell viability, Jurkat; assay type: cell-based, human; details: increasing concentration up to 10 μM
Method: as §4
FIG. 2: Effect of Compound 16 on leukemia cell lines (Jurkat, Sup-B15 and BV173). Cell viablility (CV) was determined following incubation of the 1 m cells/ml of each cell line with increasing concentration of the Compound 16 [empty vehicle (0.0 μM+IL3), 2.5, 5.0 and 10.0 μM]. CV was measured by the XTT method. […]

Sup-B15 (p185-BCR-ABL) = experiment: XTT cell viability, Sup-B15 (WT-Sup-B15); assay type: cell-based, human
Method: as §1
FIG. 2: Effect of Compound 16 on leukemia cell lines (Jurkat, Sup-B15 and BV173). Cell viablility (CV) was determined following incubation of the 1 m cells/ml of each cell line with increasing concentration of the Compound 16 [empty vehicle (0.0 μM+IL3), 2.5, 5.0 and 10.0 μM]. CV was measured by the XTT method. The means±SD of triplicates from one representative experiment out of three performed are given.

RT-Sup-B15 = experiment: XTT cell viability, RT-Sup-B15; assay type: cell-based, human; details: RT-Sup-B15, increasing concentration up to 10 μM
Method: (§5) • 1. Ba/F3 cells were obtained from the German Collection of Microorganisms and Cell Cultures (DSMZ, Braunschweig, Germany) and maintained in RPMI 1640 medium supplemented with 10% fetal calf serum (Invitrogen) containing 10 ng/ml of interleukin-3 (Cell Concepts, Umkirch, Germany). Ecotropic Phoenix cells and Rat-1 cells were cultured in Dulbecco's modified Eagle's medium supplemented with 10% fetal calf serum. GNF-2 (Sigma-Adrich, Steinheim, Germany) was dissolved in dimethyl sulfoxide and added at a final concentration of […]. Cell growth was assessed by dye exclusion using Trypan blue. Proliferation was assessed using the XTT proliferation kit (Roche, Mannheim, Germany), according to the manufacturer's instructions. • 2. Ba/F3: IL-3 dependent lymphatic murine pro B cell line. […]

BV (Ph+ ALL PD-LTC) = experiment: XTT cell viability, PD-LTC BV; assay type: cell-based, human; details: for antiproliferative response (in words): increasing concentration 0.5-10 μM; for induction of cell proliferation at high concentration (in words): concentration >5 μM (10 μM)
[4] = system: KÖ (Ph+T315I-p185-BCR-ABL ALL); experiment: XTT cell viability, PD-LTC KÖ; assay type: cell-based, human
Ph− V617FJAK2 HEL = experiment: XTT cell viability, HEL; assay type: cell-based, human; details: increasing concentration up to 10 μM
Method: as §5

PH (Ph+ ALL PD-LTC) = experiment: XTT cell viability, PD-LTC PH; details: for antiproliferative response (in words): increasing concentration 0.5-10 μM
Method: as §6, §7, §8, §9

[5] = system: SATA5, pSTAT5, JAK2 and pJAK2; experiment: Western blotting of HEL cells; assay type: cell-based, human; details: 500 nM
Method: FIG. 40: Western blot analysis of HEL cells using antibodies directed against the indicated proteins. Cells were exposed to increasing concentration of Compound 34 [vehicle (0.0 nM), 50, 100.0, 500.0, 1000.0, and 5000.0 nM].
Cells were harvested at the corresponding time intervals (0, 3, 6, 12, and 14 hours) on HELL cells. Anti-STAT5, anti-pSTAT5, anti-JAK2 and anti-pJAK2 antibodies were used.

Compound	antiproliferative response (in words) (HP (Ph− ALL PD-LTC))	antiproliferative response (in words) [1]	antiproliferative response (in words) [2]	antiproliferative response (in words) (BV (Ph+ ALL PD-LTC))	antiproliferative response (in words) (PH (Ph+ ALL PD-LTC))	other results
O=C(Nc1ccc(OC(F)(F)Cl)cc1)c1cnc(N2CC[C@@H](O)C2)c(-c2cc[nH]n2)c1 [ABL001, Asciminib, reference compound]	irresponsiveness					
CS(=O)(=O)N1CCN(c2cc(Nc3ccc(OC(F)(F)F)cc3)ncn2)CC1 [Compound 30]		increased sensitivity	concentration dependent inhibition; also recorded: weakly responsive	increased sensitivity	increased sensitivity; also recorded: PH>BV	cell viability (CV) at plateau ([2]; 4 and 10.0 μM): ~16%; antiproliferative response (in words) [3]: weakly responsive; antiproliferative response (in words) (Jurkat): irresponsive; antiproliferative response (in words) (Sup-B15 (p185-BCR-ABL); Sup-B15 / WT-Sup-B15, increasing concentration up to 10 μM): responsive; also recorded: twice as sensitive; also recorded: increased sensitivity; antiproliferative response (in words) (RT-Sup-B15): irresponsive; also recorded: weakly responsive; antiproliferative response (in words) ([4]; increasing concentration up to 10 μM): weak inhibition is noticed at concentration that ranges between 2.5-10 μM; also recorded: negligible at low concentrations (<1 μM); antiproliferative response (in words) (Ph− V617FJAK2 HEL): weakly responsive; also recorded: negligible at low concentrations (<1 μM); also recorded: weak inhibition is noticed at concentration that ranges between 2.5-10 μM
Cc1ccc(S(=O)(=O)N2CCN(c3cc(Nc4ccc(OC(F)(F)F)cc4)ncn3)CC2)cc1 [Compound 31]	negligible	negligible	negligible	significantly inhibited; also recorded: increased sensitivity; also recorded: enhanced activity	significantly inhibited; also recorded: increased sensitivity; also recorded: enhanced activity	induction of cell proliferation at high concentration (in words) (BV (Ph+ ALL PD-LTC)): induction of cell proliferation; also recorded: growth induction; induction of cell proliferation at high concentration (in words) (BV (Ph+ ALL PD-LTC); listed as −31): growth induction; antiproliferative response (in words) (Ph− V617FJAK2 HEL): negligible; induction of cell proliferation at high concentration (in words) (PH (Ph+ ALL PD-LTC); concentration >5 μM (10 μM)): induction of cell proliferation; also recorded: growth induction
COc1ccc(C(=O)N2CCN(c3cc(Nc4ccc(OC(F)(F)F)cc4)ncn3)CC2)c(OC)c1 [Compound 32]				enhanced activity; also recorded: milder	enhanced activity; also recorded: good inhibitory effect	
O=C(c1cccc(-c2cc(Nc3ccc(OC(F)(F)F)cc3)ncn2)c1)N1CCN(c2ccc(C(F)(F)F)cn2)CC1 [Compound 34]	highly resistant; also recorded: negligible; also recorded: some response at higher doses	most sensitive	least responsive; also recorded: irresponsive	more effective in inhibiting the proliferation BV than KÖ	most responsive; also recorded: twice as sensitive	antiproliferative response (in words) [3]: intermediately responsive; also recorded: next in response; antiproliferative response (in words) (Jurkat): irresponsive; also recorded: negligible; IC50 (Sup-B15 (p185-BCR-ABL); WT-Sup-B15, Table 1): 28600 nM; antiproliferative response (in words) (RT-Sup-B15): irresponsive; also recorded: negligible; IC50 (BV (Ph+ ALL PD-LTC); Table 1): 450 nM; IC50 ([4]; Table 1): 2370 nM; level of expression of SATA5, pSTAT5, JAK2 and pJAK2 (in words) [5]: reduction in the level of expression; IC50 (PH (Ph+ ALL PD-LTC); Table 1): 130 nM
Cc1ccc(NC(=O)c2ccc(CN3CCN(C)CC3)cc2)cc1Nc1nccc(-c2cccnc2)n1 [Imatinib, reference compound]	irresponsiveness					
Cc1cn(-c2cc(NC(=O)c3ccc(C)c(Nc4nccc(-c5cccnc5)n4)c3)cc(C(F)(F)F)c2)cn1 [Nilotinib, reference compound]	irresponsiveness					
